Assays:
[1] = xn = mol fraction of the nth substance listed; settings: for surface tension liquid-gas: Pendant drop shape; for mass density: 101 kPa, Liquid, Vibrating tube method
[2] = for surface tension liquid-gas: Pendant drop shape; for mass density: 101.33 kPa, Liquid, Vibrating tube method

Cc1ccc(C)cc1 [1,4-dimethylbenzene] + COCCOC
[1], x2 = 0
Settings | mass density [kg/m3] | surface tension liquid-gas [mN/m]
298.15 K | 856.95 | 28.11
303.15 K | 852.61 | 27.59
308.15 K | 848.27 | 27.07

Cc1ccccc1C [1,2-dimethylbenzene] + COCCOC
[1], x2 = 0
Settings | mass density [kg/m3] | surface tension liquid-gas [mN/m]
298.15 K | 875.09 | 29.86
303.15 K | 870.86 | 29.18
308.15 K | 866.64 | 28.61

COCCOC [1,2-dimethoxyethane] + Cc1ccc(C)cc1
[1]
Settings | mass density [kg/m3] | surface tension liquid-gas [mN/m]
298.15 K, x1 = 0.1002 | 857.45 | 27.63
298.15 K, x1 = 0.2004 | 857.95 | 27.17
298.15 K, x1 = 0.2996 | 858.44 | 26.75
298.15 K, x1 = 0.4001 | 858.93 | 26.32
298.15 K, x1 = 0.5009 | 859.41 | 25.91
298.15 K, x1 = 0.5997 | 859.85 | 25.54
298.15 K, x1 = 0.7018 | 860.28 | 25.18
298.15 K, x1 = 0.8005 | 860.66 | 24.87
298.15 K, x1 = 0.8998 | 861.02 | 24.57
298.15 K, x1 = 1 | 861.36 | 24.27
303.15 K, x1 = 0.0999 | 853.1 | 27.12
303.15 K, x1 = 0.2007 | 853.58 | 26.67
303.15 K, x1 = 0.3002 | 854.06 | 26.24
303.15 K, x1 = 0.3999 | 854.52 | 25.82
303.15 K, x1 = 0.4999 | 854.97 | 25.41
303.15 K, x1 = 0.6001 | 855.4 | 25.03
303.15 K, x1 = 0.7011 | 855.81 | 24.68
303.15 K, x1 = 0.8003 | 856.19 | 24.37
303.15 K, x1 = 0.9003 | 856.52 | 24.05
303.15 K, x1 = 1 | 856.79 | 23.73
308.15 K, x1 = 0.0996 | 848.66 | 26.61
308.15 K, x1 = 0.1998 | 849.05 | 26.16
308.15 K, x1 = 0.2997 | 849.41 | 25.73
308.15 K, x1 = 0.4001 | 849.76 | 25.3
308.15 K, x1 = 0.4995 | 850.09 | 24.89
308.15 K, x1 = 0.6004 | 850.4 | 24.51
308.15 K, x1 = 0.6993 | 850.67 | 24.17
308.15 K, x1 = 0.7993 | 850.93 | 23.84
308.15 K, x1 = 0.8998 | 851.14 | 23.5
308.15 K, x1 = 1 | 851.24 | 23.16

Cc1ccccc1C [1,2-dimethylbenzene]
[2]
Settings | mass density [kg/m3] | surface tension liquid-gas [mN/m]
298.15 K | 875.09 | 29.86
303.15 K | 870.86 | 29.18
308.15 K | 866.64 | 28.61

Reference: the NIST ThermoML archive (doi:10.1016/j.jct.2009.04.001)
